Test results as given in patent US12479870B2, “Base-modified cytidine nucleotides for leukemia therapy” (MEDIVIR AB, priority 2018, dated 2025).

Columns and labels:
[1] = Tolerability in SCID mice with human Hep3b xenograft (body weight, clinical signs); assay type: in vivo, mouse; conditions: 25 mg/kg i.p. BID x 5, SCID mice
Description: Compounds were prepared in PBS, n=9 mice per group. Body weights were monitored daily in three SCID mouse populations:
wherein the 5 day BID commenced 21 days after subcutaneous implantation with a human Hep3b xenograft.

[2] = test system: advanced, cytarabine-treatment failure, leukemia; conditions: cited from earlier work
[3] = Blood stability, murine whole blood; assay type: in vitro ADME
Description: Stability of compounds in blood was assessed following incubation in murine or human whole blood for up to 120 minutes. Remaining compound was quantified by LC-MS/MS and resulting data were used to calculate intrinsic clearance (CLint) values: […]

THP-1 cells = experiment: Leukemia cell line CC50 assay (Cell Counting Kit-8, 5 days), THP-1; assay type: cell-based; conditions: Homo sapiens, THP-1, 120 h, AML, THP1 cell line
Description: (§1) THP-1 cells (human acute monocytic leukemia) from ATCC Cat. no TIB-202 were grown in complete cell medium: RPMI-1640 medium Gibco Cat. no.11835-063 (Fisher Scientific), 10% Fetal Bovine serum (FBS), HyClone Cat. no. SV30160.03, lot no RAB35924 (GE Healthcare Life Sciences), Penicillin 50 u/ml/Streptomycin 0.05 mg/ml PAA Cat. no. P11-010 from Fisher Scientific.
(§2) Leukemia cells were grown in a cell culture flask 75 cm2 with approximately 100 ml complete cell medium. The cells were counted using a Scepter-hand held automated cell counter, using 60 μm sensors (Millipore) and suspended in complete cell medium to 2×10^5cells. 100 μl of the cell suspension were seeded to all wells (2×10^4 cells/well).
(§3) The compounds were tested in twelve concentrations, […], 50 ? BM−5×10^−10 μM. 100 μl from a compound dilution plate were transferred to the cell assay plate=200 μl/well total volume and incubated for 5 days, at 37° C., 5% CO2 incubator.
(§4) After 5 days, 10 μl of KIT-8 was added and the culture was incubated for 3-4 hours, at 37° C., 5% CO2 incubator.
(§5) Plate were read in the spectrophotometer at wavelength 450 nm with a reference filter of 620 nm.
(§6) CC50 values are calculated by plotting the degree of inhibition (compared to the vehicle ctrl) against the logarithm of the compound concentration. […]

leukemia cell lines = experiment: Average CC50 over the leukemia cell lines of Table 1; assay type: cell-based; conditions: average over the leukemia cell lines of Table 1
Description: as §2
CC50 values are calculated by plotting the degree of inhibition (compared to the vehicle ctrl) against the logarithm of the compound concentration. Result values in the dilution series are fitted to a 4-parameter sigmoidal dose-response curve described by the expression:
[formula] where: • A=Minimum • B=Slope. • C=Inflection point. The inflection point is defined as the point on the curve where the curvature changes direction or signs. • D=Maximum • F=fraction inhibition • The CC50 value is the x-value giving F=0.5, as tabulated in Table 1 below: […]

MOLT-4 cells = experiment: Leukemia cell line CC50 assay (Cell Counting Kit-8, 5 days), MOLT-4; assay type: cell-based; conditions: Homo sapiens, 120 h, ALL (T cell), MOLT-4 cell line
Description: as §1, with “MOLT-4” for “THP-1”, “(human T-cell,” for “(human”, “lymphoblastic” for “monocytic”, “CRL-1582” for “TIB-202”, “(FBS)” for “(FBS),”, “Scientific” for “Scientific.”
as §2, §3, §4, §5, §6

U-937 cells = experiment: Leukemia cell line CC50 assay (Cell Counting Kit-8, 5 days), U-937; assay type: cell-based; conditions: Homo sapiens, U-937, 120 h, AML, U937 cell line
Description: as §1, with “U-937” for “THP-1”, “histiocytic lymphoma)” for “acute monocytic leukemia)”, “CRL-1593.2” for “TIB-202”, “50u/ml/Streptomycin” for “50 u/ml/Streptomycin”
as §2, §3, §4, §5, §6

CEM cells = experiment: Leukemia cell line CC50 assay (Cell Counting Kit-8, 5 days), CEM; assay type: cell-based; conditions: Homo sapiens, CCRF-CEM, 120 h, ALL (T cell)
Description: CEM cells (T-lymphoblast from acute lymphoblastic leukemia) acquired from Swedish Institute for Infectious Disease Control (SMI) were grown in complete cell medium: RPMI-1640 medium (without L-glutamine) Cat. no. R7509 (Sigma Aldrich), 10% Fetal Bovine serum (FBS) HyClone Cat. no. SV30160.03, lot no RAB35924 (GE Healthcare Life Sciences), Penicillin 50u/ml/Streptomycin 0.05 mg/ml PAA Cat. no. P11-010 from Fisher Scientific, 2 mM Ultra glutamine 1 Cat. no BE17-605E/U1 (Lonza). • Cell culture flask 75 cm2, Cat. no. 83.1813 from Sarstedt AB. • Compound dilution plate, 96-well, V-bottom PP plate, Nunc Cat. no.249944 from Thermo Scientific. • Cell assay plate, 96-well, Cat. no. 128009296 from Fisher Scientific • Cell Counting Kit-8 CK04 from Dojindo. • Test compounds were made up to 10 mM stock solution in DMSO
as §2, with “cells/well). […]” for “cells/well).”
as §5, §6

Raji cells = experiment: Leukemia cell line CC50 assay (Cell Counting Kit-8, 5 days), Raji; assay type: cell-based; conditions: Homo sapiens, 120 h, BL (B cell)
Description: as §1, with “Raji” for “THP-1”, “(B-lymphocyte from Burkitt's lymphoma)” for “(human acute monocytic leukemia)”, “CCL-86” for “TIB-202”
as §2, §3, §4, §5, §6

MV4-11 cells = experiment: Leukemia cell line CC50 assay (Cell Counting Kit-8, 5 days), MV4-11; assay type: cell-based; conditions: Homo sapiens, MV4-11, 120 h, AML, MV411 cell line
Description: MV4-11 cells (human B-myelomonocytic leukemia) from ATCC Cat no. CRL-9591 were grown in complete cell medium: IMDM (w. GLUTAMAX-1) Cat no. 31980022 (Fisher Scientific), 10% Fetal Bovine serum (FBS) HyClone Cat. no. SV30160.03, lot no RAB35924 (GE Healthcare Life Sciences), Penicillin 50 u/ml/Streptomycin 0.05 mg/ml PAA Cat. no. P11-010 from Fisher Scientific.
as §2, §3, §4, §5, §6

K-562 cells = experiment: Leukemia cell line CC50 assay (Cell Counting Kit-8, 5 days), K-562; assay type: cell-based; conditions: Homo sapiens, 120 h, CML, K562 cell line
Description: K-562 cells (human chronic myelogenous leukemia) from ATCC Cat. no CCL-243 were grown in complete cell medium: IMDM (w. L-glutamine, 25 mM Hepes, w/o Phenol red) Cat no. 21056-023 (Fisher Scientific), 10% Fetal Bovine serum (FBS) HyClone Cat. no. SV30160.03, lot no RAB35924 (GE Healthcare Life Sciences), Penicillin 50u/ml/Streptomycin 0.05 mg/ml Cat. no. SV30010 HyClone (Fisher Scientific)
as §2, §3, §4, §5, §6

HL60 cells = experiment: Leukemia cell line CC50 assay (Cell Counting Kit-8, 5 days), HL60; assay type: cell-based; conditions: Homo sapiens, HL-60, 120 h, AML
Description: HL60 cells (human acute promyelocytic leukemia) from ATCC Cat. no CCL-240 were grown in complete cell medium: IMDM Cat. no 330-2005 (ATCC), 20% Fetal Bovine serum (FBS) HyClone Cat. no. SV30160.03, lot no RAB35924 (GE Healthcare Life Sciences), Penicillin 50u/ml/Streptomycin 0.05 mg/ml PAA Cat. no. P11-010 from Fisher Scientific
as §2, §3, §4, §5
CC50 values are calculated by plotting the degree of inhibition (compared to the vehicle ctrl) against the logarithm of the compound concentration. Result values in the dilution series are fitted to a 4-parameter sigmoidal dose-response curve described by the expression: […]

Compound	tolerability observations (bodyweight, clinical signs) [1]	patients with transient decrease in peripheral blood and marrow blasts [2]	stability in mouse blood [3]	CC50 (THP-1 cells)	CC50 (leukemia cell lines)	CC50 (MOLT-4 cells)	CC50 (U-937 cells)	CC50 (CEM cells)	CC50 (Raji cells)	CC50 (MV4-11 cells)	CC50 (K-562 cells)	CC50 (HL60 cells)
Nc1ccn([C@@H]2CO[C@H](CO)O2)c(=O)n1 [troxacitabine]	persistent bodyweight loss and clinical signs including piloerection, hunched posture and subdued behavior	Four										
Nc1nc(=O)n([C@@H]2CO[C@H](CO)O2)cc1F [5-fluorotroxacitabine, 4-amino-5-fluoro-1-((25,4S)-2-(hydroxymethyl)-1,3-dioxolan-4-yl)pyrimidin-2(1H)-one, reference compound]			stable in mouse blood									
CCC[C@H](C)OC(=O)[C@H](C)NP(=O)(OC[C@H]1OC[C@@H](n2cc(F)c(N)nc2=O)O1)Oc1cccc(C2CC2)c1 (single isomer, unassigned) [Prior art Ex 29 dia-2, reference compound]				250 nM	310 nM	2.9 nM	240 nM	98 nM	850 nM	7.8 nM	720 nM	
CC[C@@H](C)OC(=O)[C@H](C)NP(=O)(OC[C@H]1OC[C@@H](n2cc(F)c(N)nc2=O)O1)Oc1ccccc1 (single isomer, unassigned) [Prior art Ex 32 dia 2, reference compound]				200 nM	350 nM	3.8 nM	240 nM	52 nM	1000 nM	8.1 nM	440 nM	890 nM
